Values of other authors in US9744299B2, “Data processing device for an anesthesia device” (Dräger Medical GmbH, priority 2012, dated 2017).
Read-outs that look alike come from different tables or passages of the source.

Tests used:
[1] = system: patients; settings: effect-site concentration, 50% of patients tolerate "Shake and Shout"
[2] = system: patients; settings: steepness of the rise of the response surface; property of the drug

Structure (SMILES)	C50hyp ([1]; C50Prop)	h (Steepness) [2]	C50hyp ([1]; C50Vol)
CC(C)c1cccc(C(C)C)c1O [Propofol, propofol]	2.99 µg/mL	3.46	–
FCOC(C(F)(F)F)C(F)(F)F [sevoflurane]	–	–	1.47 vol. %
